Source: patent publication US11866416B2, “Streptococcus mutans glucosyl transferase inhibitors for dental caries therapy” (UAB Research Foundation, priority 2018, dated 2024)
≈ marks a conversion by molar mass, not a printed value. Read-outs that look alike come from different tables or passages of the source.

Assays:
S. mutans biofilm = S. mutans biofilm formation and inhibition assay (96-well plates, crystal violet); format: cell-based, Streptococcus mutans
Protocol: Biofilm assays using 96-well flat-bottom polystyrene microtiter plates were performed to evaluate S. mutans biofilm formation at various conditions as described (Liu et al. (2011) Antimicrobial Agents and Chemotherapy 55, 2679; Zhang et al. (2015) International Journal of Antimicrobial Agents 46, 174), the disclosures of which are incorporated herein by reference in their entirety). Each assay was replicated three times. Compounds that inhibited biofilm formation at minimum concentration (MBIC) were determined by serial dilutions.
S. mutans biofilm formation and inhibition assays. […] Each assay was replicated three times. Minimum biofilm inhibitory concentration (MBIC) of compounds was determined by serial dilutions.
S. mutans biofilm formation and inhibition assays. Biofilm assays using 96-well flat-bottom polystyrene microtiter plates were performed to evaluate S. mutans biofilm formation at various conditions as described. Each assay was replicated […]. Compounds that inhibited 50% biofilm formation were determined by serial dilutions.
S. mutans biofilm formation and inhibition assays. A well-established protocol to study S. mutans biofilm formation in 96-well flat-bottom polystyrene microtiter plates was used, in triplicate (Mattos-Graner, R. O.; Napimoga, M. H.; Fukushima, K.; Duncan, M. J.; Smith, D. J., Comparative analysis of Gtf isozyme production and diversity in isolates of Streptococcus mutans with different biofilm growth phenotypes. Journal of clinical microbiology 2004, 42 (10), 4586-4592). The stock solutions were made up in 100% DMSO, and final concentration of DMSO used in the assays was 1%. Minimum biofilm inhibitory concentration (MBIC) of compounds was determined by serial dilutions.

S. mutans = assay: microbe, parasite or virus in culture; format: cell-based, Streptococcus mutans; settings: for MIC50: Streptococcus mutans; for Selectivity: growth versus biofilm
Protocol: Cell viability of S. mutans, S. gordonii, S. sanguinis, Aggregatibacter actinomycetemcomitans and Actinomyces. […] The number of colony-forming units (CFU) per milliliter of each sample treated with selected compounds at different concentrations was enumerated after incubation for 24 h at 37° C. and compared to the values obtained from the DMSO control group. Overnight broth cultures were transferred by 1:50 dilutions into fresh THB medium and were allowed to grow until mid-exponential phase (OD470 nm 0.6) before transfer to 96-well plates containing desired concentration of the compound. After 16 h incubation, bacterial growth was measured at OD470, and normalized to the DMSO control (100%).
Cell viability of S. mutans and commensal S. gordonii and S. sanguinis. Effects of lead small molecules on cell viability were examined. The number of colony-forming units (CFU) per milliliter for each compound at different concentrations was determined after incubation for 24 h at 37° C. and compared to the values obtained from the DMSO control group.
Cell viability of S. mutans and commensal S. gordonii and S. sanguinis. […] DMSO served as a control group and provided a relative comparison for the number of colony-forming units (CFU) per milliliter for each compound at different concentrations was determined after incubation for 24 h at 37° C. The final concentration of DMSO used in the assays was 1%.

[1] = Streptococcus mutans, Table 1, >500 = no inhibition up to 500 μM, read-out: Biofilm Inhibition IC50
[2] = Streptococcus mutans, Table 2, read-out: Biofilm Inhibition IC50
[3] = Table 2, >300 = no inhibition up to 300 μM, read-out: Growth Inhibition MIC50
[4] = Table 6, chalcones, 200 μM, NI = no inhibition
[5] = read-out: S. mutans biofilm IC50
[6] = Streptococcus mutans, Table 4, stilbenes, NI = no inhibition, read-out: Biofilm IC50
[7] = Streptococcus mutans, Table 8, stilbenes, NI = no inhibition, read-out: Biofilm IC50
[8] = Table 4, stilbenes, average of at least 5 measurements, NI = no inhibition, read-out: Growth MIC50
[9] = Table 8, stilbenes, average of at least 5 measurements, NI = no inhibition

Row | IC50 (S. mutans biofilm; [1]) | IC50 (S. mutans biofilm; [2]) | MIC50 (S. mutans; [3]) | SMILES | also measured
1 | 45.6 µM | 45.6 µM | > 300 µM | NC(=O)c1ccccc1NC(=O)c1cc2ccccc2s1 [Compound 3B] | 
2 | 146 µM | 146 µM | > 300 µM | NC(=O)c1ccccc1NC(=O)c1c[nH]c2ccccc12 [Compound 3F] | 
3 | 68.8 µM | 68.8 µM | > 300 µM | COc1ccc2[nH]c(C(=O)Nc3ccccc3C(N)=O)cc2c1 [Compound 3G] | 
4 | 106 µM | 106 µM | > 300 µM | NC(=O)c1ccccc1NC(=O)c1cnc2ccc(Br)cc2c1 [Compound 3J] | 
5 | 103 µM | 103 µM | > 300 µM | NC(=O)c1ccccc1NC(=O)c1cc2cc([N+](=O)[O-])ccc2o1 [Compound 3K] | 
6 | 42.3 µM | 42.3 µM | > 300 µM | NC(=O)c1cccc(NC(=O)c2cc3cc([N+](=O)[O-])ccc3s2)c1 [Compound 3P] | 
7 | 50.4 µM | 50.4 µM | > 300 µM | NC(=O)c1ccccc1OC(=O)c1cc2cc([N+](=O)[O-])ccc2s1 [Compound 3Q] | 
8 | 8.6 µM | 8.6 µM | > 300 µM | NC(=O)c1cccc(NC(=O)c2cnc3ccccc3c2)c1 [Compound 3R] | 
9 | 92.3 µM | 92.3 µM | > 300 µM | COC(=O)c1ccc(NC(=O)c2cnc3ccccc3c2)cc1 [Compound 3S] | 
10 | 54.4 µM | 54.4 µM | > 300 µM | COC(=O)c1cccc(NC(=O)c2cc3cc([N+](=O)[O-])ccc3s2)c1 [Compound 3U] | 
11 | 41.2 µM | 41.2 µM | > 300 µM | COC(=O)c1ccc(NC(=O)c2cc3ccccc3s2)cc1 [Compound 3V] | 
12 | 56.6 µM | 56.6 µM | > 300 µM | COc1ccc2[nH]c(C(=O)Nc3cccc(C(N)=O)c3)cc2c1 [Compound 3W] | 
13 | 116 µM | 116 µM | > 300 µM | NC(=O)c1cccc(NC(=O)c2cc3ccccc3s2)c1 [Compound 3X] | 
14 | 45.6 µM | 45.6 µM | > 300 µM | NC(=O)c1ccc(NC(=O)c2cc3ccccc3s2)cc1 [Compound 3Y] | 
15 | 38.8 µM | 38.8 µM | > 300 µM | NC(=O)c1cccc(NC(=O)c2cc3cc([N+](=O)[O-])ccc3o2)c1 [Compound 3Z] | 

Second part, the molecule before the results:

Row | SMILES | IC50 (S. mutans biofilm; [1]) | IC50 (S. mutans biofilm; [2]) | MIC50 (S. mutans; [3]) | also measured
16 | O=C(Nc1ccccc1F)c1cc2cc([N+](=O)[O-])ccc2s1 [BM] | 162 µM | 162 µM | > 300 µM | 
17 | NC(=O)c1ccc(NC(=O)c2ccc3ccccc3c2O)cc1 [BN] | 56.9 µM | 56.9 µM | > 300 µM | 
18 | NC(=O)c1cccc(NC(=O)c2ccccc2-c2ccccc2)c1 [BO] | 49.4 µM | 49.4 µM | > 300 µM | 
19 | NC(=O)c1ccc(NC(=O)c2cccc3ccccc23)cc1 [BR] | 167 µM | 167 µM | > 300 µM | 
20 | NC(=O)c1cccc(NC(=O)c2cccc3ccccc23)c1 [BS] | 195 µM | 195 µM | > 300 µM | 
21 | NCc1cccc(NC(=O)c2cc3ccccc3s2)c1 [BX] | 209 µM | 209 µM | > 300 µM | 
22 | COC(=O)c1ccc(NC(=O)c2cc3cc([N+](=O)[O-])ccc3[nH]2)cc1 [BZ] | 196 µM |  | > 300 µM | 
23 | O=C(/C=C/c1cccc(O)c1)c1ccccc1O [Compound 2] |  |  |  | Biofilm inhibition 200 μM (%) (S. mutans biofilm; [4]): 84 ± 3%; IC50 (S. mutans biofilm; Table 6, chalcones, read-out: S. mutans Biofilm IC50): 64 ± 4 µM; Growth inhibition 200 μM (%) (S. mutans; [4]): 86 ± 0.5%; IC50 (S. mutans; Table 6, chalcones, NI = no inhibition, read-out: S. mutans Growth IC50): 32 ± 0.3 µM
24 | N=C(N)c1ccc(/C=C/c2ccc(C(=N)N)cc2O)cc1 [Compound 5] |  |  |  | effect on S. mutans biofilm in the preliminary screen (S. mutans biofilm; chalcones, 200 μM): did not possess any bactericidal or anti-biofilm properties; IC50 (S. mutans biofilm; [5]): 104 µM; S. mutans growth IC50 / MIC50 (S. mutans): 179 µM; effect on S. mutans growth (S. mutans; chalcones, up to 200 μM): did not possess any bactericidal or anti-biofilm properties
25 | Oc1cc(O)cc(/C=C/c2ccc(O)c(O)c2)c1 [Compound 8] |  |  |  | Biofilm inhibition 200 μM (%) (S. mutans biofilm; [4]): 81 ± 2%; IC50 (S. mutans biofilm; [5]): 52 µM; Growth inhibition 200 μM (%) (S. mutans; [4]): 82 ± 2%
26 | COc1ccc(/C=C/C(=O)c2ccc(OC)c(OC)c2)cc1O [Compound 13] |  |  |  | Biofilm inhibition 200 μM (%) (S. mutans biofilm; [4]): 27 ± 4%; biofilm inhibition at 200 μM (S. mutans biofilm; chalcones, 200 μM): 30%; activity of stilbenes against S. mutans biofilm (S. mutans biofilm; stilbenes): not active against biofilm and growth; Growth inhibition 200 μM (%) (S. mutans; [4]): 30 ± 0.7%; growth inhibition at 200 μM (S. mutans; chalcones, 200 μM): 30%; activity of stilbenes against S. mutans growth (S. mutans; stilbenes): not active against biofilm and growth
27 | CC(C)(C)OC(=O)NCc1ccccc1NC(=O)c1cc2cc([N+](=O)[O-])ccc2[nH]1 [Compound 298C9] |  | 26.8 µM | > 300 µM | 
28 | NCc1ccccc1NC(=O)c1cc2cc([N+](=O)[O-])ccc2[nH]1 [Compound 298C10] |  | 98.3 µM | > 300 µM | 
29 | COC(=O)c1cccc(NC(=O)c2cc3ccccc3s2)c1 [Compound 298D5] |  | 121 µM | > 300 µM | 
30 | NC(=O)c1ccccc1OC(=O)c1cnc2ccccc2c1 [Compound 298F7] |  | 30.4 µM | > 300 µM | 
31 | COC(=O)c1cccc(NC(=O)c2ccc3ccccc3n2)c1 [Compound 298G5] |  | 92.3 µM | > 300 µM | 
32 | COC(=O)c1ccc(NC(=O)c2ccc3ccccc3n2)cc1 [Compound 298G6] |  | 106 µM | > 300 µM | 
33 | NC(=O)c1ccccc1OC(=O)c1ccc2ccccc2n1 [Compound 298G7] |  | 105 µM | > 300 µM | 
34 | NC(=O)c1cccc(NC(=O)c2cc3cc([N+](=O)[O-])ccc3[nH]2)c1 [Compound 298b2] |  | 138 µM | > 300 µM | 
35 | Oc1ccc(/C=C/c2ccc(O)cc2)cc1 [Entry 4] |  |  |  | IC50 (S. mutans biofilm; [6]): 344 ± 17 µM; IC50 (S. mutans biofilm; [7]): 344 ± 17 µM; MIC50 (S. mutans; [8]): 854 ± 58 µM (≈ 181 µg/mL); Selectivity (S. mutans; Table 4, stilbenes): 2.4; Growth MIC50 (S. mutans; [9]): 854 ± 58 µM; Selectivity (S. mutans; Table 8, stilbenes): 2.4
36 | N=C(N)c1ccc(/C=C/c2ccc(C(=N)N)cc2O)cc1 [Entry 5] |  |  |  | IC50 (S. mutans biofilm; [6]): 104 ± 7 µM; IC50 (S. mutans biofilm; [7]): 104 ± 7 µM; MIC50 (S. mutans; [8]): 179 ± 23 µM (≈ 50.2 µg/mL); Growth MIC50 (S. mutans; [9]): 179 ± 23 µM
37 | COc1cc(O)cc(/C=C/c2ccccc2)c1 [Entry 6] |  |  |  | IC50 (S. mutans biofilm; [6]): 477 ± 51 µM; IC50 (S. mutans biofilm; [7]): 477 ± 51 µM; MIC50 (S. mutans; [8]): 546 ± 25 µM (≈ 124 µg/mL); Selectivity (S. mutans; Table 4, stilbenes): 1.1; Growth MIC50 (S. mutans; [9]): 546 ± 25 µM; Selectivity (S. mutans; Table 8, stilbenes): 1.1
